# Data from patent US9228009B2, “Multi-hierarchical self-assembly of a collagen mimetic peptide” (WILLIAM MARSH RICE UNIVERSITY, priority 2011, dated 2016).
# Non-standard residues stand in square brackets, D forms with d. Residues, ends and D or L forms follow the SMILES beside them. Hyp = O=C(O)[C@@H]1C[C@@H](O)CN1
# Legend:
# [1] = tested on: collagenase type IV; assay: Collagenase degradation study of hydrogels; format: in vitro ADME; conditions: for hydrogel degradation state: w/ collagenase
# Protocol: (§1) As a simple functional test of the collagen hydrogel mimetic, we compared its ability to be broken down by collagenase (type IV, Invitrogen) the primary component of which is MMP2, a protease known to specifically cleave between the X and Gly residues of an X-Y-Gly repeat found in a triple helix.^42 (Pro-Lys-Gly)4(Pro-Hyp-Gly)4(Asp-Hyp-Gly)4 hydrogels were prepared at a concentration of 2.0% by weight in phosphate buffer and treated with either collagenase in HBSS (Hank's Balanced Salt Solution) or HBSS alone. The samples were allowed to incubate at room temperature (approximately 20° C.), 30° C. and 37° C. Hydrogels of rat-tail collagen were prepared in the same fashion with and without collagenase.
# (§2) Using the previously described gelation procedure, gels of (Pro-Lys-Gly)4(Pro-Hyp-Gly)4(Asp-Hyp-Gly)4 were prepared at a concentration of 2.0% by weight in 10 mM phosphate buffer. Directly after annealing, 100 μl of solution was pipetted into two wells of a 96-well cell culture plate and allowed to incubate at room temperature overnight. A 0.3% by weight collagenase type IV solution was prepared by dissolving 15.0 mg of non-sterile lyophilized enzyme into 5 ml of Hank's Balanced Salt Solution (HBSS). The solution was then filter sterilized using a 0.2 μm filter attached to a syringe. Enzyme and buffer were from Invitrogen (Carlsbad, Calif.). After gelation was complete, 150 μl of collagenase was added on top of one well and 150 μL of HBSS was added on the other serving as a control. Three plates were prepared and incubated at room temperature (about 20° C.), 30° C. and 37° C. Each condition was observed and imaged at 0, 1, 4, 6, 12, 24 and 48 hours after addition of the collagenase or HBSS. Plates containing rat-tail collagen gels at a concentration of 3.0% by weight were prepared and analyzed in an identical manner. Table 1 and Table 2 below show collagenase mediated degradation of (Pro-Lys-Gly)4(Pro-Hyp-Gly)4(Asp-Hyp-Gly)4 and rat-tail collagen hydrogels, respectively. Samples were tested at room temperature (approximately 20° C., 30° C. and 37° C.) with and without collagenase. […] Control samples of (Pro-Lys-Gly)4(Pro-Hyp-Gly)4(Asp-Hyp-Gly)4 at room temperature and 30° C. were intact after 48 hours. However at 37° C. the hydrogels dissolved after 24 hours due to the proximity of this temperature to the triple helices melting temperature.
# [2] = Hydrogel control in HBSS without collagenase; format: physicochemical; conditions: no collagenase (HBSS), 2.0% by weight gel
# Protocol: as §1, §2
# [3] = Circular dichroism thermal unfolding; format: physicochemical
# Protocol: All peptide concentrations were measured by weight. All samples were adjusted to pH 7 with sodium hydroxide prior to the addition of buffer and then annealed for 15 minutes at 85° C. Lastly, the samples were incubated at room temperature for at least 12 hours prior to characterization to ensure complete assembly. Time course rheological studies are given in FIG. 13 to support this time scale.
# All spectra and thermal unfolding studies were performed on a Jasco J-810 spectropolarimeter equipped with a Peltier temperature control system. Quartz cells were used with pathlengths of 0.01 cm and 0.1 cm depending on the peptide concentration and buffer. Spectra were collected from 190-250 nm. Melting experiments were performed from 5 to 85° C., monitoring at 225 nm, and the first derivative of the thermal unfolding curve was taken in order to determine the melting temperature of the sample. The molar residual ellipticity (MRE) is calculated from the measured ellipticity using the equation:
# [formula] where θ is the ellipticity in mdeg, m is the molecular weight in g/mol, c is the concentration in mg/ml, l is the pathlength of the cuvette in cm, and nr is the number of amino acids in the peptide. The spectrum for 1.0% by weight is only shown from 250-205 nm due to the increase in background noise for higher concentration samples at lower wavelengths.
# [4] = room temperature (approximately 20° C.)
molecule,measurement,setting,value
NCCCC[C@H](NC(=O)[C@@H]1CCCN1)C(=O)NCC(=O)N1CCC[C@H]1C(=O)N[C@@H](CCCCN)C(=O)NCC(=O)N1CCC[C@H]1C(=O)N[C@@H](CCCCN)C(=O)NCC(=O)N1CCC[C@H]1C(=O)N[C@@H](CCCCN)C(=O)NCC(=O)N1CCC[C@H]1C(=O)N1C[C@H](O)C[C@H]1C(=O)NCC(=O)N1CCC[C@H]1C(=O)N1C[C@H](O)C[C@H]1C(=O)NCC(=O)N1CCC[C@H]1C(=O)N1C[C@H](O)C[C@H]1C(=O)NCC(=O)N1CCC[C@H]1C(=O)N1C[C@H](O)C[C@H]1C(=O)NCC(=O)N[C@@H](CC(=O)O)C(=O)N1C[C@H](O)C[C@H]1C(=O)NCC(=O)N[C@@H](CC(=O)O)C(=O)N1C[C@H](O)C[C@H]1C(=O)NCC(=O)N[C@@H](CC(=O)O)C(=O)N1C[C@H](O)C[C@H]1C(=O)NCC(=O)N[C@@H](CC(=O)O)C(=O)N1C[C@H](O)C[C@H]1C(=O)NCC(=O)O [(Pro-Lys-Gly)4(Pro-Hyp-Gly)4(Asp-Hyp-Gly)4] (H-PKGPKGPKGPKGP[Hyp]GP[Hyp]GP[Hyp]GP[Hyp]GD[Hyp]GD[Hyp]GD[Hyp]GD[Hyp]G-OH; N-terminus assumed),time after which hydrogel treated with collagenase was fully dissolved,[1]; 30° C.,4 h
same,time after which hydrogel treated with collagenase was fully dissolved,[1]; 37° C.,1 h
same,time after which hydrogel treated with collagenase was fully dissolved,[1]; [4],4 h
same,hydrogel degradation state,"[1]; 20° C., 0 h, 2.0% by weight gel",intact
same,hydrogel degradation state,"[1]; 20° C., 1 h, 2.0% by weight gel",intact
same,hydrogel degradation state,"[1]; 20° C., 4 h, 2.0% by weight gel",dissolved
same,hydrogel degradation state,"[1]; 20° C., 6 h, 2.0% by weight gel",dissolved
same,hydrogel degradation state,"[1]; 20° C., 12 h, 2.0% by weight gel",dissolved
same,hydrogel degradation state,"[1]; 20° C., 24 h, 2.0% by weight gel",dissolved
same,hydrogel degradation state,"[1]; 20° C., 48 h, 2.0% by weight gel",dissolved
same,hydrogel degradation state,"[1]; 30° C., 0 h, 2.0% by weight gel",intact
same,hydrogel degradation state,"[1]; 30° C., 1 h, 2.0% by weight gel",intact
same,hydrogel degradation state,"[1]; 30° C., 4 h, 2.0% by weight gel",dissolved
same,hydrogel degradation state,"[1]; 30° C., 6 h, 2.0% by weight gel",dissolved
same,hydrogel degradation state,"[1]; 30° C., 12 h, 2.0% by weight gel",dissolved
same,hydrogel degradation state,"[1]; 30° C., 24 h, 2.0% by weight gel",dissolved
same,hydrogel degradation state,"[1]; 30° C., 48 h, 2.0% by weight gel",dissolved
same,hydrogel degradation state,"[1]; 37° C., 0 h, 2.0% by weight gel",intact
same,hydrogel degradation state,"[1]; 37° C., 1 h, 2.0% by weight gel",dissolved
same,hydrogel degradation state,"[1]; 37° C., 4 h, 2.0% by weight gel",dissolved
same,hydrogel degradation state,"[1]; 37° C., 6 h, 2.0% by weight gel",dissolved
same,hydrogel degradation state,"[1]; 37° C., 12 h, 2.0% by weight gel",dissolved
same,hydrogel degradation state,"[1]; 37° C., 24 h, 2.0% by weight gel",dissolved
same,hydrogel degradation state,"[1]; 37° C., 48 h, 2.0% by weight gel",dissolved
same,hydrogel degradation state,"[2]; 20° C., 0 h",intact
same,hydrogel degradation state,"[2]; 20° C., 1 h",intact
same,hydrogel degradation state,"[2]; 20° C., 4 h",intact
same,hydrogel degradation state,"[2]; 20° C., 6 h",intact
same,hydrogel degradation state,"[2]; 20° C., 12 h",intact
same,hydrogel degradation state,"[2]; 20° C., 24 h",intact
same,hydrogel degradation state,"[2]; 20° C., 48 h",intact
same,hydrogel degradation state,"[2]; 30° C., 0 h",intact
same,hydrogel degradation state,"[2]; 30° C., 1 h",intact
same,hydrogel degradation state,"[2]; 30° C., 4 h",intact
same,hydrogel degradation state,"[2]; 30° C., 6 h",intact
same,hydrogel degradation state,"[2]; 30° C., 12 h",intact
same,hydrogel degradation state,"[2]; 30° C., 24 h",intact
same,hydrogel degradation state,"[2]; 30° C., 48 h",intact
same,hydrogel degradation state,"[2]; 37° C., 0 h",intact
same,hydrogel degradation state,"[2]; 37° C., 1 h",intact
same,hydrogel degradation state,"[2]; 37° C., 4 h",intact
same,hydrogel degradation state,"[2]; 37° C., 6 h",intact
same,hydrogel degradation state,"[2]; 37° C., 12 h",intact
same,hydrogel degradation state,"[2]; 37° C., 24 h",dissolved
same,hydrogel degradation state,"[2]; 37° C., 48 h",dissolved
same,triple helix melting temperature,"[3]; 10 mM phosphate buffer, pH 7, first derivative of CD unfolding curve at 225 nm",40-41 °C
same,triple helix cooperative transition (melting) temperature,[3]; 1.0% by weight in phosphate,41 °C
same,melting transition,"[3]; gel-forming samples in additional buffers (water, Tris, PBS), pH 7",40-41 °C
same,melting temperature,"[3]; samples that did not form gels in additional buffers (water, Tris, PBS), pH 7",around 23 °C
Rat-tail Collagen: collagen type I harvested from rat-tail tendon; hydrogels at 3.0% by weight used as comparator [reference compound],time after which hydrogel treated with collagenase was fully dissolved,[1]; 30° C.,4 h
same,time after which hydrogel treated with collagenase was fully dissolved,[1]; 37° C.,1 h
same,time after which hydrogel treated with collagenase was fully dissolved,[1]; [4],4 h
same,hydrogel degradation state,"[1]; 20° C., 0 h, 3.0% by weight gel",intact
same,hydrogel degradation state,"[1]; 20° C., 1 h, 3.0% by weight gel",intact
same,hydrogel degradation state,"[1]; 20° C., 4 h, 3.0% by weight gel",dissolved
same,hydrogel degradation state,"[1]; 20° C., 6 h, 3.0% by weight gel",dissolved
same,hydrogel degradation state,"[1]; 20° C., 12 h, 3.0% by weight gel",dissolved
same,hydrogel degradation state,"[1]; 20° C., 24 h, 3.0% by weight gel",dissolved
same,hydrogel degradation state,"[1]; 20° C., 48 h, 3.0% by weight gel",dissolved
same,hydrogel degradation state,"[1]; 30° C., 0 h, 3.0% by weight gel",intact
same,hydrogel degradation state,"[1]; 30° C., 1 h, 3.0% by weight gel",intact
same,hydrogel degradation state,"[1]; 30° C., 4 h, 3.0% by weight gel",dissolved
same,hydrogel degradation state,"[1]; 30° C., 6 h, 3.0% by weight gel",dissolved
same,hydrogel degradation state,"[1]; 30° C., 12 h, 3.0% by weight gel",dissolved
same,hydrogel degradation state,"[1]; 30° C., 24 h, 3.0% by weight gel",dissolved
same,hydrogel degradation state,"[1]; 30° C., 48 h, 3.0% by weight gel",dissolved
same,hydrogel degradation state,"[1]; 37° C., 0 h, 3.0% by weight gel",intact
same,hydrogel degradation state,"[1]; 37° C., 1 h, 3.0% by weight gel",dissolved
same,hydrogel degradation state,"[1]; 37° C., 4 h, 3.0% by weight gel",dissolved
same,hydrogel degradation state,"[1]; 37° C., 6 h, 3.0% by weight gel",dissolved
same,hydrogel degradation state,"[1]; 37° C., 12 h, 3.0% by weight gel",dissolved
same,hydrogel degradation state,"[1]; 37° C., 24 h, 3.0% by weight gel",dissolved
same,hydrogel degradation state,"[1]; 37° C., 48 h, 3.0% by weight gel",dissolved
